Values joined by “and” are separate entries in the source; they are usually repeats but may differ in a detail not shown here. Equal entries are not always repeated.
Key:
[1] = system: mouse skin inflammation model; parameters: method as in PMID 26019221; settings: at its maximum tolerated dose; cited from earlier work
Sec61 = target: T1, Sec61 (Homo sapiens, UniProt P61619); experiment: cell-based; format: cell-based
T1 construct: endogenous in cells
T1 sequence (P61619 whole entry): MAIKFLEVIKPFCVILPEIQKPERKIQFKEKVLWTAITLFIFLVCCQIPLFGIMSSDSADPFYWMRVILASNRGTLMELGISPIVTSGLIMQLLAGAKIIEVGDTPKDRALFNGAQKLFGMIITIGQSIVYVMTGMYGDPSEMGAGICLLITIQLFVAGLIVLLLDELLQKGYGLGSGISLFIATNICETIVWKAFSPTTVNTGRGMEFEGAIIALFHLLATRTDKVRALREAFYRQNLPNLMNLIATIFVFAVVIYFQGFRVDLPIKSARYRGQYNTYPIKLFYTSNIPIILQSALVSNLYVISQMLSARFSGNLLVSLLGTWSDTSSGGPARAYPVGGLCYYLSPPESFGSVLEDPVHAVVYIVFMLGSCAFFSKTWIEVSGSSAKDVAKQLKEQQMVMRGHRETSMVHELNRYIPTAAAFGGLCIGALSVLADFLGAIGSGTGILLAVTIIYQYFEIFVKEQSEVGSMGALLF
T1 sequence (P60059 whole entry, further chain): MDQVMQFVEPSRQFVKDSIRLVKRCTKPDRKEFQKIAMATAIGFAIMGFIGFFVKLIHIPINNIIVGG
T1 sequence (P60468 whole entry, further chain): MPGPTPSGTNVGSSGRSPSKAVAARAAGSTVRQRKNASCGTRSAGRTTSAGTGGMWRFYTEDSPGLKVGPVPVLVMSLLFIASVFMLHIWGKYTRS

mycolactone A/B
efficacy in mouse skin inflammation model [1]: modest efficacy
potency against VCAM-GLuc relative to pPL-GLuc (Sec61; HEK293T, 24 h): equipotent
secreted luciferase activity (% of no-drug control) (Sec61; VCAM signal peptide, Drug nM (log10) 0.18303): 91.1752% and 96.3566% and 105.08% and 96.2111%
secreted luciferase activity (% of no-drug control) (Sec61; VCAM signal peptide, Drug nM (log10) 0.660151): 60.5653% and 60.6911% and 72.2191% and 65.68%
secreted luciferase activity (% of no-drug control) (Sec61; VCAM signal peptide, Drug nM (log10) 1.13727): 69.7373% and 62.7916% and 84.5753% and 63.8152%
secreted luciferase activity (% of no-drug control) (Sec61; VCAM signal peptide, Drug nM (log10) 1.61439): 23.3051% and 17.9704% and 24.3586% and 17.2696%
secreted luciferase activity (% of no-drug control) (Sec61; VCAM signal peptide, Drug nM (log10) 2.09151): 9.614% and 7.324% and 15.2923% and 7.158%
secreted luciferase activity (% of no-drug control) (Sec61; VCAM signal peptide, Drug nM (log10) 2.56864): 5.834% and 4.881% and 8.3778% and 4.722%
secreted luciferase activity (% of no-drug control) (Sec61; VCAM signal peptide, Drug nM (log10) 3.04576): 4.831% and 3.708% and 6.049% and 3.853%
secreted luciferase activity (% of no-drug control) (Sec61; VCAM signal peptide, Drug nM (log10) 3.52288): 3.813% and 3.595% and 4.497% and 3.349%
secreted luciferase activity (% of no-drug control) (Sec61; VCAM signal peptide, Drug nM (log10) 4): 4.399% and 3.701% and 4.702% and 3.31%
secreted luciferase activity (% of no-drug control) (Sec61; VCAM signal peptide, Drug nM (log10) -0.29409): 91.3897% and 90.48% and 98.9457% and 92.5099%
secreted luciferase activity (% of no-drug control) (Sec61; pPL signal peptide, Drug nM (log10) 0.18303): 96.941% and 113.105% and 106.161% and 90.9819%
secreted luciferase activity (% of no-drug control) (Sec61; pPL signal peptide, Drug nM (log10) 0.660151): 87.4346% and 105.37% and 92.2325% and 88.4507%
secreted luciferase activity (% of no-drug control) (Sec61; pPL signal peptide, Drug nM (log10) 1.13727): 90.1482% and 100.766% and 90.4471% and 85.7727%
secreted luciferase activity (% of no-drug control) (Sec61; pPL signal peptide, Drug nM (log10) 1.61439): 34.1743% and 36.4459% and 25.7816% and 32.3021%
secreted luciferase activity (% of no-drug control) (Sec61; pPL signal peptide, Drug nM (log10) 2.09151): 11.7024% and 15.7348% and 12.066% and 11.9677%
secreted luciferase activity (% of no-drug control) (Sec61; pPL signal peptide, Drug nM (log10) 2.56864): 10.1212% and 10.0148% and 7.898% and 9.649%
secreted luciferase activity (% of no-drug control) (Sec61; pPL signal peptide, Drug nM (log10) 3.04576): 5.549% and 7.948% and 6.334% and 6.2294%
secreted luciferase activity (% of no-drug control) (Sec61; pPL signal peptide, Drug nM (log10) 3.52288): 4.849% and 7.368% and 5.461% and 6.2207%
secreted luciferase activity (% of no-drug control) (Sec61; pPL signal peptide, Drug nM (log10) 4): 4.167% and 6.905% and 5.234% and 5.9772%
secreted luciferase activity (% of no-drug control) (Sec61; pPL signal peptide, Drug nM (log10) -0.29409): 102.214% and 111.849% and 98.9284% and 92.0234%

From article PMC10449633 (Nature Chemical Biology, 2023)
